The values below come from US20200114012A1, “METHOD FOR PRODUCING A LIQUID COMPOSITION” (The University of Liverpool, priority 2017, published 2020).

The first data set can be described thus: Solubility of TDF in solvents and of TDF particulates in oils. The class given is physicochemical. To be noted: dichloromethane. An excerpt:
Therefore methanol was used for the first solvent. TDF is not soluble in dichloromethane, which was used as the second solvent.
A selection of biocompatible natural oils were used to form liquid compositions. These oils were selected as the TDF particulates were insoluble in them and the oils could be dissolved into the mixed solvent system. The oils used were peanut oil, soy bean oil, sesame oil and safflower oil.
Regarding `CC(C)OC(=O)OCOP(=O)(CO[C@H](C)Cn1cnc2c(N)ncnc21)OCOC(=O)OC(C)C.O=C(O)/C=C/C(=O)O` [TDF, tenofovir disoproxil fumerate], the solubility in dichloromethane entry is recorded as “not soluble”.

Still in this data set, the particulars now being: methanol, organic solvent or mixture.
A word on the solubility: it is how much of the substance goes into solution per volume. For the molecule `CC(C)OC(=O)OCOP(=O)(CO[C@H](C)Cn1cnc2c(N)ncnc21)OCOC(=O)OC(C)C.O=C(O)/C=C/C(=O)O` [TDF, tenofovir disoproxil fumerate], the solubility is not above 80 mg/mL.

A further data set is described as follows: Precipitation of TDF particulates with stabiliser combinations (Example 5). The class given is physicochemical. To be noted: Stabiliser B combined with Stabiliser A AOT, procedure of Example 2. The protocol:
800 μL of the stabiliser-containing dichloromethane solution was pipetted into a 4 mL volume glass vial. 200 μL of TDF-containing methanol solution was rapidly pipetted into the same vial, which was then sealed and briefly shaken. A white, hazy suspension formed instantaneously. […] The TDF loading of the particulates was altered by changing the concentration of the methanol and dichloromethane solutions prior to mixing. It should be noted that this approach allows for different volumes of the TDF particulate suspensions to be produced simply by increasing the volumes added, so long as the 4:1 ratio of dichloromethane to methanol is maintained, this allows for fine control of the concentration of the TDF particles dispersed in the oil of the liquid composition.
Following the procedure described in Example 2, the following combinations of stabilisers were used to form TDF particulates (see table 7 below).
For `CCCCC/C=C\C/C=C\CCCCCCCC(=O)OCC(O)CO` (stereo not drawn) [Maisine ™ 35-1, glyceryl monolinoleate], the “Successful Precipitation” value is given as “Yes”.

For the molecule `CCCCCCCC/C=C\CCCCCCCC(=O)OCC(O)CO` (stereo not drawn) [Pecol ™, glycerol mono-oleate], the “Successful Precipitation” value is “Yes”.

Regarding “polyethylene glycol sorbitan monooleate [Tween ™ 80]”, the “Successful Precipitation” value was “Yes”.

As to “polyglyceryl-3 diisostearate [Plurol ™ diisosteraque]”, the “Successful Precipitation” value is “Yes”.

For the molecule “polyglyceryl-6 dioleate [Plurol ™ Olique]”, the “Successful Precipitation” value is on record as “Yes”.

Consider “polyoxyethylene (2) stearyl ether [Brij ™ S2]”, for which the “Successful Precipitation” value is listed as “Yes”.

Consider “polyoxyethylenesorbitan monopalmitate [Tween ™ 40]”, for which the “Successful Precipitation” value is listed as “Yes”.

With “propylene glycol monocaprylate (type I) [Capryol ™ PGMC]”, the “Successful Precipitation” value was “Yes”.

“propylene glycol monocaprylate (type II) [Capryol ™ 90]”: the “Successful Precipitation” value is listed as “Yes”.

Take “propylene glycol monolaurate (type I) [Lauroglycol ™ FCC]”: the “Successful Precipitation” value is listed as “Yes”.

As for “propylene glycol monolaurate (type II) [Lauroglycol ™ 90]”, the “Successful Precipitation” value is recorded as “Yes”.

On to “propylene glycol monopalmitostearate [Monosteol ™]”, for which the “Successful Precipitation” value is listed as “Yes”.

With sorbitan oleate [Span ™ 80], the “Successful Precipitation” value is given as “Yes”.
